# Values joined by “and” are separate entries in the source; they are usually repeats but may differ in a detail not shown here. Equal entries are not always repeated. Toxic doses and inconclusive results are not listed.
# Tested on: B6C3F1 mice, B16 melanoma ip, median survival T/C
# Experiment: NCI In Vivo Anticancer Drug Screen. Data for tumor model B16 Melanoma (intraperitoneal) in B6C3F1 mice
# Settings: endpoint: median survival time, higher = longer survival
# Protocol: The antitumor activity of compounds was measured in mice bearing transplantable tumors. Survival or tumor size were measured and the results are expressed as the measurement made in the treated group (T) divided by the measurement made in the vehicle treated control group (C). The tumor model used in this assay is B16 Melanoma (intraperitoneal) in B6C3F1 mice
# [1] = dose: 12.5 mg/kg/injection, schedule: Q01DX009 (ip), vehicle: saline
# [2] = dose: 25.0 mg/kg/injection, schedule: Q01DX009 (ip), vehicle: saline
# [3] = dose: 50.0 mg/kg/injection, schedule: Q01DX009 (ip), vehicle: saline
# [4] = dose: 100.0 mg/kg/injection, schedule: Q01DX009 (ip), vehicle: saline
# [5] = dose: 200.0 mg/kg/injection, schedule: Q01DX009 (ip), vehicle: saline
# [6] = dose: 400.0 mg/kg/injection, schedule: Q01DX009 (ip), vehicle: saline
structure (smiles),measurement,setting,value
COc1cccc2c1C(=O)c1c(O)c3c(c(O)c1C2=O)C[C@@](O)(/C(C)=N/NC(N)=S)C[C@@H]3OC1CC(N)C(O)C(C)O1 (some centres not stated),T/C,"dose: 12.5 mg/kg/injection, schedule: Q01DX001 (ip), vehicle: water",155 % of control and 166 % of control
same,T/C,"dose: 25.0 mg/kg/injection, schedule: Q01DX001 (ip), vehicle: water",185 % of control and 202 % of control
same,T/C,"dose: 50.0 mg/kg/injection, schedule: Q01DX001 (ip), vehicle: water",185 % of control and 220 % of control
same,T/C,"dose: 100.0 mg/kg/injection, schedule: Q01DX001 (ip), vehicle: water",201 % of control
CC1=C2C(=CO[C@H](C)[C@H]2C)C(=O)C(C(=O)O)=C1O,T/C,"dose: 6.25 mg/kg/injection, schedule: Q01DX009 (ip), vehicle: Klucel (hydroxypropylcellulose) (HPC)",105 % of control
same,T/C,"dose: 6.25 mg/kg/injection, schedule: Q01DX009 (ip), vehicle: saline",108 % of control
same,T/C,"dose: 12.5 mg/kg/injection, schedule: Q01DX009 (ip), vehicle: Klucel (hydroxypropylcellulose) (HPC)",102 % of control
same,T/C,[1],100 % of control
same,T/C,[2],100 % of control
same,T/C,[3],98 % of control
O=C(Nc1nncs1)c1ccncc1,T/C,"dose: 12.5 mg/kg/injection, schedule: Q01DX009 (ip), vehicle: saline with Tween-80",108 % of control
same,T/C,"dose: 25.0 mg/kg/injection, schedule: Q01DX009 (ip), vehicle: saline with Tween-80",102 % of control
same,T/C,"dose: 50.0 mg/kg/injection, schedule: Q01DX009 (ip), vehicle: saline with Tween-80",92 % of control
CCCCNc1ccc2nnc(C)n2n1,T/C,"dose: 50.0 mg/kg/injection, schedule: Q01DX009 (ip), vehicle: DMSO",98 % of control and 102 % of control
same,T/C,"dose: 100.0 mg/kg/injection, schedule: Q01DX009 (ip), vehicle: DMSO",110 % of control and 92 % of control
same,T/C,"dose: 200.0 mg/kg/injection, schedule: Q01DX009 (ip), vehicle: DMSO",92 % of control
C/C=C1\C(=O)O[C@@]23C=C[C@H]4C(C(=O)OC)=CO[C@@H](O[C@H]12)[C@H]43,T/C,"dose: 3.75 mg/kg/injection, schedule: Q01DX009 (ip), vehicle: Klucel (hydroxypropylcellulose) (HPC)",101 % of control
same,T/C,"dose: 7.5 mg/kg/injection, schedule: Q01DX009 (ip), vehicle: Klucel (hydroxypropylcellulose) (HPC)",95 % of control
same,T/C,"dose: 15.0 mg/kg/injection, schedule: Q01DX009 (ip), vehicle: Klucel (hydroxypropylcellulose) (HPC)",95 % of control
CC(C)CC1C(=O)OC(C(C)C)C(=O)N(C)C(CC(C)C)C(=O)OC(C(C)C)C(=O)N(C)C(CC(C)C)C(=O)OC(C(C)C)C(=O)N(C)C(CC(C)C)C(=O)OC(C(C)C)C(=O)N1C (configuration not stated),T/C,"dose: 1.0 mg/kg/injection, schedule: Q01DX009 (ip), vehicle: saline",97 % of control
same,T/C,"dose: 2.0 mg/kg/injection, schedule: Q01DX009 (ip), vehicle: saline",99 % of control
same,T/C,"dose: 4.0 mg/kg/injection, schedule: Q01DX009 (ip), vehicle: saline",104 % of control
same,T/C,"dose: 8.0 mg/kg/injection, schedule: Q01DX009 (ip), vehicle: saline",102 % of control
same,T/C,"dose: 16.0 mg/kg/injection, schedule: Q01DX009 (ip), vehicle: saline",101 % of control
Cc1ccccc1CN1C2=NCCN2C(=O)C2=C1CCN(S(=O)(=O)c1ccc(Cl)c(S(N)(=O)=O)c1)C2,T/C,[1],101 % of control
same,T/C,[2],101 % of control
same,T/C,[3],95 % of control
same,T/C,[4],90 % of control
same,T/C,[5],92 % of control
same,T/C,[6],90 % of control
CC(=O)NC(Cc1cc(I)c(O)c(I)c1)C(=O)O (configuration not stated),T/C,[3],121 % of control
same,T/C,[4],89 % of control
same,T/C,[5],92 % of control
same,T/C,[6],102 % of control
C=CC(C)(C)n1cc(C2=C(O)C(=O)C(c3cn(C(C)(C)C=C)c4ccccc34)=C(O)C2=O)c2ccccc21,T/C,"dose: 2.5 micrograms/kg/injection, schedule: Q01DX009 (ip), vehicle: DMSO",87 % of control
same,T/C,"dose: 5.0 micrograms/kg/injection, schedule: Q01DX009 (ip), vehicle: DMSO",91 % of control
same,T/C,"dose: 10.0 micrograms/kg/injection, schedule: Q01DX009 (ip), vehicle: DMSO",86 % of control
same,T/C,"dose: 20.0 micrograms/kg/injection, schedule: Q01DX009 (ip), vehicle: DMSO",87 % of control
COC1C(O)CC(OC2CC(Oc3cc4cc5c(c(O)c4c(O)c3C)C(=O)[C@@H](OC3CC(OC4CC(OC6CC(C)(O)C(OC(C)=O)C(C)O6)C(O)C(C)O4)C(O)C(C)O3)[C@H]([C@H](OC)C(=O)[C@@H](O)[C@@H](C)O)C5)OC(C)C2OC(C)=O)OC1C (some centres not stated),T/C,"dose: 0.01 mg/kg/injection, schedule: Q01DX009 (ip), vehicle: Klucel (hydroxypropylcellulose) (HPC)",165 % of control
same,T/C,"dose: 0.04 mg/kg/injection, schedule: Q01DX009 (ip), vehicle: Klucel (hydroxypropylcellulose) (HPC)",151 % of control
same,T/C,"dose: 0.08 mg/kg/injection, schedule: Q01DX009 (ip), vehicle: Klucel (hydroxypropylcellulose) (HPC)",196 % of control
same,T/C,"dose: 0.16 mg/kg/injection, schedule: Q01DX009 (ip), vehicle: Klucel (hydroxypropylcellulose) (HPC)",171 % of control

# — PubChem BioAssay AID200 (DTP/NCI, 2004)
